Read-outs that look alike come from different tables or passages of the source.
How the values were obtained:
IRAK4 = IRAK4 (Homo sapiens (Human), UniProt Q9NWZ3); experiment: IRAK4 MSD degradation in OCI-LY10; assay type: cell-based
Procedure, shortened: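 Remaining IRAK4 quantified by electrochemiluminescent MSD sandwich assay with two anti-IRAK4 antibodies. Compounds were dosed as 8 concentrations in 1:3 steps from a 1 to 10 μM final top on OCI-LY10 cells, incubated 4 to 24 h at 37° C. under 5% CO2. DC50 fitted with a three-parameter logistic curve.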

OCI-LY10 = experiment: CTG Cell Viability Assay - OCI-LY10; assay type: cell-based, human; details: OCI-LY10, 4 days, read-out: CTG Cell Viability Assay - OCI-LY10: Average external-IC50
Procedure, shortened: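 Viability read by CellTiter-Glo luminescence after 4 days at 37° C under 5% CO2 with compound (top 10 μM final, 1:3 steps, 9 doses, DMSO 0.2%). Three-parameter logistic fit gave IC50.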

[1] = OCI-LY10, 4 hrs, MSD, read-out: IRAK4 MSD degradation in OCI-LY10 at 4 hrs: Average external-Abs DC50
[2] = OCI-LY10, 24 hrs, MSD, read-out: IRAK4 MSD degradation in OCI-LY10 at 24 hrs: Average external-Abs DC50
[3] = OCI-LY10, 4 hrs, read-out: IRAK4 MSD degradation in OCI-LY10 at 4 hrs: DC50
[4] = OCI-LY10, 24 hrs, read-out: IRAK4 MSD degradation in OCI-LY10 at 24 hrs: DC50

Sequence of IRAK4 (Q9NWZ3 whole entry): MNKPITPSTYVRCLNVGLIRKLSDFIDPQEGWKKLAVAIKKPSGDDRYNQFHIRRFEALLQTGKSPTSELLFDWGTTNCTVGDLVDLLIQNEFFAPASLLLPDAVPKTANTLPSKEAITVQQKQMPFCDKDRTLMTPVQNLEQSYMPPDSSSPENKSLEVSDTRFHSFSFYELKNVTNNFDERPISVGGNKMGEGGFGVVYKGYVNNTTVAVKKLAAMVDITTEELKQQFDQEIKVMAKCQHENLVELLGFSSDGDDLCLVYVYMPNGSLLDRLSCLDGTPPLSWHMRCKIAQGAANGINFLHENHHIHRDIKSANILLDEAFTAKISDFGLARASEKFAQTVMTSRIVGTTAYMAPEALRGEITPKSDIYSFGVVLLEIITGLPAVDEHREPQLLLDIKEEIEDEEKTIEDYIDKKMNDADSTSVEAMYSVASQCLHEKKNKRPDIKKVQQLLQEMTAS

| Compound | DC50 (IRAK4; [1]) | DC50 (IRAK4; [2]) | IC50 (OCI-LY10; Homo sapiens, OCI-Ly10, 96 h) | DC50 (IRAK4; [3]) | DC50 (IRAK4; [4]) | IC50 (OCI-LY10) |
| --- | --- | --- | --- | --- | --- | --- |
| CN(CCCN1CCO[C@@H](CNc2cccc3c2C(=O)N(C2CCC(=O)NC2=O)C3=O)C1)C[C@H]1CC[C@H](n2cc(NC(=O)c3cnn4ccc(N5C[C@H]6C[C@@H]5CO6)nc34)c(C(F)F)n2)CC1 (stereo partly shown) [I-347] | 100 to 1000 nM | 10 to 100 nM | < 50 nM |  |  |  |
| O=C1CCC(N2Cc3c(OCc4ccc(CN5CCN(C[C@H]6CC[C@H](n7cc(NC(=O)c8coc(-c9ccnc(NCC%10CC%10)c9)n8)c(C(F)F)n7)CC6)CC5)cc4)cccc3C2=O)C(=O)N1 (stereo partly shown) [I-379] | > 1000 nM | > 1000 nM | 100 to 500 nM |  |  |  |
| CN(CCCOCCCNc1cccc2c1C(=O)N(C1CCC(=O)NC1=O)C2=O)C[C@H]1CC[C@H](n2cc(NC(=O)c3coc(-c4ccnc(N5CCOCC5)c4)n3)c(C(F)F)n2)CC1 (stereo partly shown) [I-397] | 100 to 1000 nM | 100 to 1000 nM | 50 to 100 nM |  |  |  |
| CC[C@@H]1[C@H](F)C(=O)N[C@@H]1COc1ncc(C#C[C@H]2CC[C@H](CN(C)CCCc3ccc(CNc4cccc5c4C(=O)N(C4CCC(=O)NC4=O)C5=O)cc3)CC2)c2cc(C(N)=O)c(OC)cc12 (stereo partly shown) [I-338] | 100 to 1000 nM |  | < 50 nM |  |  |  |
| Cn1c(=O)n([C@@H]2CCC(=O)NC2=O)c2cccc(CCCOC3CCN(C[C@H]4CC[C@H](n5cc(NC(=O)c6cnn7ccc(N8CCOCC8)nc67)c(C(F)F)n5)CC4)CC3)c21 [I-311, N-(3-(difluoromethyl)-1-((1r,4r)-4-((4-(3-(1-((R)-2,6-dioxopiperidin-3-yl)-3-methyl-2-oxo-2,3-dihydro-1H-benzo [d]imidazol-4-yl)propoxy)piperidin-1-yl)methyl)cyclohexyl)-1H-pyrazol-4-yl)-5-morpholinopyrazolo[1,5-a] pyrimidine-3-carboxamide] | 10 to 100 nM |  | > 1000 nM |  |  |  |
| CN(C[C@H]1CC[C@H](n2cc(NC(=O)c3coc(-c4ccnc(NCC5CC5)c4)n3)c(C(F)F)n2)CC1)C1CCN(Cc2cccc3c2n(C)c(=O)n3[C@@H]2CCC(=O)NC2=O)CC1 [I-309, 2-(2-((cyclopropylmethyl)amino)pyridin-4-yl)-N-(3-(difluoromethyl)-1-((1R,4r)-4-(((1-((1-((R)-2,6-dioxopiperidin-3-yl)-3-methyl-2-oxo-2,3-dihydro-1H-benzo [d]imidazol-4-yl)methyl)piperidin-4-yl)(methyl)amino)methyl)cyclohexyl)-1H-pyrazol-4-yl)oxazole-4-carboxamide] | 10 to 100 nM |  | < 50 nM |  |  |  |
| CN(C[C@H]1CC[C@H](n2cc(NC(=O)c3cnn4ccc(N5C[C@H]6C[C@@H]5CO6)nc34)c(C(F)F)n2)CC1)[C@H]1CC[C@H](Nc2cccc3c2C(=O)N(C2CCC(=O)NC2=O)C3=O)CC1 (stereo partly shown) [I-463] |  |  | 100 to 500 nM | 10 to 100 nM | < 10 nM |  |
| Cn1c(=O)n(C2CCC(=O)NC2=O)c2cccc(CCCOCCCN3CCC(n4cc(NC(=O)c5cnn6ccc(N7CCNCC7)nc56)c(C(F)F)n4)CC3)c21 (stereo not shown) [I-180] | 10 to 100 nM |  | > 1000 nM |  |  |  |
| O=C1CCC(N2C(=O)c3cccc(N[C@H]4C[C@H](OC5CCN(C[C@H]6CC[C@H](n7cc(NC(=O)c8cnn9ccc(N%10C[C@H]%11C[C@@H]%10CO%11)nc89)c(C(F)F)n7)CC6)CC5)C4)c3C2=O)C(=O)N1 (stereo partly shown) [I-505] |  |  | > 1000 nM | 10 to 100 nM | < 10 nM |  |
| O=C1CCC(N2C(=O)c3cccc(NC4CC5(CCN(C[C@H]6CC[C@H](n7cc(NC(=O)c8cnn9ccc(N%10C[C@H]%11C[C@@H]%10CO%11)nc89)c(C(F)F)n7)CC6)CC5)C4)c3C2=O)C(=O)N1 (stereo partly shown) [I-381] | 10 to 100 nM | < 10 nM | 50 to 100 nM |  |  |  |
| O=C1CCC(n2c3cccc(CCCOC4CCN(C[C@H]5CC[C@H](n6cc(NC(=O)c7cnn8ccc(N9CCC(O)CC9)nc78)c(C(F)F)n6)CC5)CC4)c3c3cccnc32)C(=O)N1 (stereo partly shown) [I-151] | 10 to 100 nM |  | > 1000 nM |  |  |  |
| CN(C(=O)c1cnn2ccc(N3CCOCC3)nc12)c1cn([C@H]2CC[C@H](CN3CCN(Cc4ccc(COc5cccc6c5CN(C5CCC(=O)NC5=O)C6=O)cc4)CC3)CC2)nc1C(F)F (stereo partly shown) [I-503] |  |  | < 50 nM | > 1000 nM | > 1000 nM |  |
| O=C1CCC(N2C(=O)c3cccc(NCCCOCCCOCCCN4CCC(n5cc(NC(=O)c6cnn7ccc(N8C[C@H]9C[C@@H]8CO9)nc67)c(C(F)F)n5)CC4)c3C2=O)C(=O)N1 (stereo partly shown) [I-321] | 100 to 1000 nM |  |  |  |  | > 1000 nM |
| O=C1CCC(N2C(=O)c3cccc(NCCOC[C@H]4CC[C@H](n5cc(NC(=O)c6cnn7ccc(N8C[C@H]9C[C@@H]8CO9)nc67)c(C(F)F)n5)CC4)c3C2=O)C(=O)N1 (stereo partly shown) [I-369] | > 1000 nM | > 1000 nM | 100 to 500 nM |  |  |  |
| CN(CCc1ccc(CNc2cccc3c2C(=O)N(C2CCC(=O)N(C)C2=O)C3=O)cc1)C[C@H]1CC[C@H](n2cc(NC(=O)c3cnn4ccc(N5C[C@H]6CC5CO6)nc34)c(C(F)F)n2)CC1 (stereo partly shown) [I-452] |  |  | > 1000 nM | 100 to 1000 nM | > 1000 nM |  |
| O=C1CCC(N2C(=O)c3cccc(NC4CCN(C5CCN(C[C@H]6CC[C@H](n7cc(NC(=O)c8cnn9ccc(N%10CCOCC%10)nc89)c(C(F)F)n7)CC6)CC5)CC4)c3C2=O)C(=O)N1 (stereo partly shown) [I-232] | < 10 nM |  | < 50 nM |  |  |  |
| O=C1CCC(N2C[C@@H](c3ccc(C#CCCOC4CCN(C[C@H]5CC[C@H](n6cc(NC(=O)c7cnn8ccc(N9CCC(O)CC9)nc78)c(C(F)F)n6)CC5)CC4)cc3)OC2=O)C(=O)N1 (stereo partly shown) [I-152] | 10 to 100 nM |  | > 1000 nM |  |  |  |

Source: US11352350B2, “IRAK degraders and uses thereof” (Kymera Therapeutics, Inc., priority 2018, dated 2022)
